From patent US9790169B2, “IDO inhibitors” (BRISTOL-MYERS SQUIBB COMPANY, priority 2015, dated 2017)

Biological target: human IDO1 (Homo sapiens, UniProt P14902)
Assay: Assessment of human IDO-1 inhibitory activity in HEK cells (human IDO1/HEK293 cells, kynurenine read-out with Ehrlich reagent, absorbance 490 nm)
Assay type: cell-based
Set-up: expressed in transfected cells
Settings: HEK Human IDO-1 cellular assay
In short: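 HEK293 cells stably expressing human IDO1 were seeded at 10,000 per well in phenol red-free RPMI with 10% FBS, treated with compound for 20 h at 37 °C. Kynurenine was measured after TCA (0.2% final) and 30 min at 50 °C, using Ehrlich reagent, A490. IC50 normalised to DMSO (0%) and 500 nM reference standard (100%).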

human IDO1, sequence (P14902 whole entry): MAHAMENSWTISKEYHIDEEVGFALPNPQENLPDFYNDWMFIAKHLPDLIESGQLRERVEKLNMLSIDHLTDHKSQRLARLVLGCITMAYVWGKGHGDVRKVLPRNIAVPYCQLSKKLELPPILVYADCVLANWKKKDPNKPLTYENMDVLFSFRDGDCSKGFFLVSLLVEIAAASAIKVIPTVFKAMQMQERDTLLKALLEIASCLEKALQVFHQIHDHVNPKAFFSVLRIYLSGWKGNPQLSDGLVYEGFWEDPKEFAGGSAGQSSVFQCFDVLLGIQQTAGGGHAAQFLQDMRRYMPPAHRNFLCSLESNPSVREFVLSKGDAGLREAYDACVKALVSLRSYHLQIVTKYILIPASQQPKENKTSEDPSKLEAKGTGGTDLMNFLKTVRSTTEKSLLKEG

Row | Structure (SMILES) | IC50
1 | CC[C@H](CC(=O)O)c1ccc(N(CC(C)C)CC(C)C)c(Nc2ccc3nc(C)sc3c2)c1 (single isomer, unassigned) [Example 10] | > 50 nM
2 | CCN(c1ccc([C@H](COC)CC(=O)O)cc1NC(=O)Nc1cnc(C)nc1)C1CCOCC1 (single isomer, unassigned) [Example 438] | > 50 nM
3 | CCC(CC(=O)O)c1ccc(N(CC(C)C)C2CCCCC2)c(NC(=O)C(F)(F)c2ccc(C)cc2)c1 (racemic) [Example 1075, 3-(4-(Cyclohexyl(isobutyl)amino)-3-(2,2-difluoro-2-(p-tolyl)acetamido)phenyl)pentanoic acid] | > 50 nM
4 | CCC(CC(=O)O)c1cc(F)c(N(CC(C)C)CC(C)C)c(NC(=O)Nc2ccc(C#N)c(Cl)c2)c1 (racemic) [Example 978, (+/−)-3-(3-(3-(3-chloro-4-cyanophenyl)ureido)-4-(diisobutylamino)-5-fluorophenyl)pentanoic acid] | < 50 nM
5 | CCN(c1ccc([C@H](COC)CC(=O)O)cc1NC(=O)Nc1ccc(OC(F)F)cc1)C1CCOCC1 (single isomer, unassigned) [Example 436] | > 50 nM
6 | COCC(CC(=O)O)c1ccc(N(CC2CC2)C2CCOCC2)c(NC(=O)Nc2ccc(C)cc2)c1 (single isomer, unassigned) [Example 676, 3-(4-((Cyclopropylmethyl)(tetrahydro-2H-pyran-4-yl)amino)-3-(3-(p-tolyl)ureido)phenyl)-4-methoxybutanoic acid] | > 50 nM
7 | CC[C@@H](CC(=O)O)c1ccc(N(CC)C2CCOCC2)c(Nc2ccn3nc(C)c(F)c3c2)c1 (single isomer, unassigned) [Example 470] | < 50 nM
8 | CCC(CC(=O)O)c1ccc(N2CCOC[C@H]2C(C)C)c(Nc2cnc(OCC3CC3)nc2)c1 (single isomer, unassigned) [Example 905] | > 50 nM
9 | CCC(CC(=O)O)c1ccc(N2CCC[C@H]2C(C)(C)O)c(Nc2ccc3c(c2)OC(F)(F)O3)c1 (single isomer, unassigned) [Example 821] | < 50 nM
10 | CCOc1ccc(NC(=O)Nc2cc(C(C)CC(=O)O)ccc2N(CC(C)C)C2CCOCC2)cc1 (single isomer, unassigned) [Example 963, 3-(3-(3-(4-ethoxyphenyl)ureido)-4-(isobutyl(tetrahydro-2H-pyran-4-yl)amino)phenyl)butanoic acid] | > 50 nM
11 | CCN(c1ccc(C(C)(C)CC(=O)O)cc1Nc1ccc2nc(C)sc2c1)C1CCOCC1 [Example 164, 3-(4-(ethyl(tetrahydro-2H-pyran-4-yl)amino)-3-((2-methylbenzo[d]thiazol-6-yl)amino)phenyl)-3-methylbutanoic acid] | < 50 nM
12 | CC[C@@H](CC(=O)O)c1ccc(N(CC)C2CCOCC2)c(Nc2ccc(S(=O)(=O)CC)cc2)c1 (single isomer, unassigned) [Example 485] | < 50 nM
13 | CCN(c1ccc(C(C)CC(=O)O)cc1NC(=O)Nc1ccccc1F)C1CCOCC1 (single isomer, unassigned) [Example 638, 3-(4-(ethyl(tetrahydro-2H-pyran-4-yl)amino)-3-(3-(2-fluorophenyl)ureido)phenyl) butanoic acid] | < 50 nM
14 | CC(CC(=O)O)c1ccc(N2CCC[C@H]2C(C)(C)O)c(Nc2ccc(Cl)cc2)c1 (single isomer, unassigned) [Example 804] | < 50 nM
15 | CCOc1ncc(Nc2cc([C@H](CC)CC(=O)O)ccc2N(CC(C)(C)O)C2CCOCC2)cn1 (single isomer, unassigned) [Example 202] | > 50 nM
16 | CC[C@@H](CC(=O)O)c1ccc(N(CC(C)C)CC(C)C)c(Nc2ccc3nc(C)sc3c2)c1 (single isomer, unassigned) [Example 9] | > 50 nM
17 | COCC(CC(=O)O)c1ccc(N(CC(C)C)CC(C)C)c(NC(=O)Nc2cncnc2)c1 (single isomer, unassigned) [997-2] | < 50 nM
18 | CCOc1ncc(Nc2cc(C(CC)CC(=O)O)ccc2N2CCOC[C@H]2C(C)C)cn1 (single isomer, unassigned) [Example 891] | > 50 nM
19 | CC(C)(CC(=O)O)c1ccc(N2CCC[C@H]2C(C)(C)O)c(Nc2ccc(F)cc2)c1 [Example 807, (S)-3-(3-((4-Fluorophenyl)amino)-4-(2-(2-hydroxypropan-2-yl)pyrrolidin-1-yl)phenyl)-3-methylbutanoic acid] | > 50 nM
20 | CCC(CC(=O)O)c1cc(F)c(N(CC(C)C)CC(C)C)c(NC(=O)Nc2ccccc2Cl)c1 (racemic) [Example 975, (+/−)-3-(3-(3-(2-chlorophenyl)ureido)-4-(diisobutylamino)-5-fluorophenyl)pentanoic acid] | < 50 nM
21 | CCN(c1ccc(C(C)CC(=O)O)cc1Nc1cnc(OCC2CC2)nc1)C1CCOCC1 (single isomer, unassigned) [Example 614, 3-(3-((2-(cyclopropylmethoxy)pyrimidin-5-yl)amino)-4-(ethyl(tetrahydro-2H-pyran-4-yl)amino)phenyl)butanoic acid] | < 50 nM

Other lines, results leading:

Row | IC50 | Structure (SMILES)
22 | < 50 nM | COCC(CC(=O)O)c1ccc(N(CC2CC2)C2CCOCC2)c(Nc2ccc(C#N)cc2)c1 (single isomer, unassigned) [Example 687, 3-(3-((4-cyanophenyl)amino)-4-((cyclopropylmethyl) (tetrahydro-2H-pyran-4-yl)amino)phenyl)-4-methoxybutanoic acid]
23 | < 50 nM | CCOc1ccc(NC(=O)Nc2cc(C(COC)CC(=O)O)ccc2N(CC(C)C)C2CCOCC2)c(F)c1 (single isomer, unassigned) [Example 1222, 3-(3-(3-(4-Ethoxy-2-fluorophenyl)ureido)-4-(isobutyl(tetrahydro-2H-pyran-4-yl)amino)phenyl)-4-methoxybutanoic acid]
24 | < 5 nM | CCc1ccc(Nc2cc([C@H](CC)CC(=O)O)ccc2N(CC)C2CCOCC2)cc1 (single isomer, unassigned) [Example 517]
25 | < 5 nM | CC[C@@H](CC(=O)O)c1ccc(N(CC)C2CCOCC2)c(Nc2ccc(C#N)cc2)c1 (single isomer, unassigned) [Example 458]
26 | < 5 nM | CC[C@@H](CC(=O)O)c1ccc(N(CC)C2CCOCC2)c(Nc2ccc(OCC(F)(F)F)cc2)c1 (single isomer, unassigned) [Example 475]
27 | < 5 nM | CCC(CC(=O)O)c1cc(NC(=O)Nc2ccc3c(c2)OCO3)c(N(CC(C)C)CC(C)C)cc1F (single isomer, unassigned) [Example 1135, 3-(5-(3-(Benzo[d][1,3]dioxol-5-yl)ureido)-4-(diisobutylamino)-2-fluorophenyl)pentanoic acid]
28 | < 5 nM | CCC(CC(=O)O)c1cc(NC(=O)Nc2cnc(C)nc2)c(N(CC(C)C)C2CCCCC2)cc1F (single isomer, unassigned) [Example 1126, 3-(4-(Cyclohexyl(isobutyl)amino)-2-fluoro-5-(3-(2-methylpyrimidin-5-yl)ureido)phenyl)pentanoic acid]
29 | < 5 nM | CCOc1ncc(Nc2cc(C(CC)CC(=O)O)cc(F)c2N(CC(C)C)CC(C)C)cn1 (single isomer, unassigned) [Example 103, 3-(4-(diisobutylamino)-3-((2-ethoxypyrimidin-5-yl)amino)-5-fluorophenyl)pentanoic acid]
30 | < 5 nM | COCC(CC(=O)O)c1ccc(N(CC(C)C)C2CCCCC2)c(NC(=O)Nc2ccc(Cl)cc2F)c1 (racemic) [Example 984, (+/−)-3-(3-(3-(4-Chloro-2-fluorophenyl)ureido)-4-(cyclohexyl(isobutyl)amino)phenyl)-4-methoxybutanoic acid]
31 | < 5 nM | CCC(CC(=O)O)c1ccc(N(CC2CC2)C(C)C)c(Nc2ccc(Cl)cc2)c1 (single isomer, unassigned) [Example 714, 3-(3-((4-chlorophenyl)amino)-4-((cyclopropylmethyl) (isopropyl)amino)phenyl) pentanoic acid]
32 | < 5 nM | CCC(CC(=O)O)c1cc(NC(=O)Nc2cncnc2)c(N(CC(C)C)C2CCCCC2)cc1F (racemic) [Example 1122, (±)-3-(4-(cyclohexyl(isobutyl)amino)-2-fluoro-5-(3-(pyrimidin-5-yl)ureido)phenyl)pentanoic acid]
33 | < 5 nM | CCN(c1ccc(C(C)CC(=O)O)cc1Nc1ccc(F)cc1)C1CCOCC1 (single isomer, unassigned) [Example 615, 3-(4-(ethyl(tetrahydro-2H-pyran-4-yl)amino)-3-((4-fluorophenyl)amino)phenyl) butanoic acid]
34 | < 5 nM | CCC(CC(=O)O)c1cc(NC(=O)Nc2ccc(C)cc2)c(N(CC(C)C)CC(C)C)cc1F (racemic) [Example 1128, (±)-3-(4-(Diisobutylamino)-2-fluoro-5-(3-(p-tolyl)ureido)phenyl)pentanoic acid]
35 | < 5 nM | CCOc1ccc(NC(=O)Nc2cc(C(CC)CC(=O)O)c(F)cc2N(CC(C)C)C2CCCCC2)c(F)c1 (single isomer, unassigned) [Example 1117, 3-(4-(Cyclohexyl(isobutyl)amino)-5-(3-(4-ethoxy-2-fluorophenyl)ureido)-2-fluorophenyl)pentanoic acid]
36 | < 5 nM | CC[C@@H](CC(=O)O)c1ccc(N(CC)C2CCOCC2)c(Nc2ccc(OCC3CC3)cc2)c1 (single isomer, unassigned) [Example 476]
37 | < 5 nM | CCCN(c1ccc([C@@H](COC)CC(=O)O)cc1Nc1ccc(F)cc1)C1CCOCC1 (single isomer, unassigned) [Example 562]
38 | < 5 nM | CCN(c1ccc([C@@H](COC)CC(=O)O)cc1Nc1ccc(C)cc1)C1CCOCC1 (single isomer, unassigned) [Example 373]
39 | < 5 nM | CCOc1ccc(NC(=O)Nc2cc(C(CC)CC(=O)O)c(F)cc2N(CC(C)C)C2CCCCC2)c(F)c1 (racemic) [Example 1116, (±)-3-(4-(Cyclohexyl(isobutyl)amino)-5-(3-(4-ethoxy-2-fluorophenyl)ureido)-2-fluorophenyl)pentanoic acid]
40 | < 5 nM | CC[C@@H](CC(=O)O)c1ccc(N(CC)C2CCOCC2)c(NC(=O)Nc2ccc(Cl)cc2F)c1 (single isomer, unassigned) [Example 489]
